Molecules are shown by their SMILES.

Test [1] has as its target T1, Aae MutL (Aquifex aeolicus, UniProt O67518).
T1 construct: full-length (C-terminal domain residues 303-425), expressed in E. coli Rosetta (DE3) from pTWIN1 as Mxe GyrA intein fusion, intein tag cleaved off
T1 sequence (O67518 1-425): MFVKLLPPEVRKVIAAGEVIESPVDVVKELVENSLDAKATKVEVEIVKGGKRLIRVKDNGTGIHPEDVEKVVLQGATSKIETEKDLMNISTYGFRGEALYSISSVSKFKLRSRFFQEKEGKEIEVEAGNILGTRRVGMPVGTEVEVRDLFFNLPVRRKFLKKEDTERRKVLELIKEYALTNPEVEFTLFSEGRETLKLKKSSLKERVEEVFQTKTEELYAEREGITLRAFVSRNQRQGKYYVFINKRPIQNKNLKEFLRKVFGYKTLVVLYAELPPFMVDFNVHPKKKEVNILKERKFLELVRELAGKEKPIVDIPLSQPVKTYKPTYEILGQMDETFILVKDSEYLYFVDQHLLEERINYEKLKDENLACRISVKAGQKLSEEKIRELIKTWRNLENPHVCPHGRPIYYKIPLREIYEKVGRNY
Description: filter-binding assay with 3H nucleotide. The conditions noted are these: labelled compound; no DNA, ssDNA or dsDNA M13mp18; 10 mM MgCl2, 50 mM NaCl, pH 7.9, room temperature.

Test [2] has as its target T1, Aae MutL. The test is described as follows: initial rate of supercoiled pBR322 nicking, agarose gel. The class given is biochemical. The conditions noted are these: 1 mM AMPPNP, 1 mM MnSO4, pH 7.6, 37 °C; activator.

As to `Nc1ncnc2c1ncn2[C@@H]1O[C@H](COP(=O)(O)OP(=O)(O)OP(=O)(O)O)[C@@H](O)[C@H]1O` [ATP], the “filter-binding assay with 3H nucleotide” value on Aae MutL [1] is “in the presence of ssDNA MutL binds both ATP and ADP with about equal affinity”. Still for that read-out and setting: the entry for `Nc1ncnc2c1ncn2[C@@H]1O[C@H](COP(=O)(O)OP(=O)(O)O)[C@@H](O)[C@H]1O` [ADP] is “in the presence of ssDNA MutL binds both ATP and ADP with about equal affinity”. Consider `Nc1ncnc2c1ncn2[C@@H]1O[C@H](COP(=O)(O)OP(=O)(O)NP(=O)(O)O)[C@@H](O)[C@H]1O` [AMPPNP], for which, at Aae MutL [2], the “initial rate of supercoiled pBR322 nicking, agarose gel” value is given as “AMPPNP stimulated Aae MutL nicking activity to the same extent as observed with ATP”.

Values taken from article PMC2744016, “Adenosine Triphosphate Stimulates Aquifex aeolicus MutL Endonuclease Activity” (PLoS ONE, 2009).
